Experimental data taken from patent US4914096A, “6-aryl-substituted-4H-thieno(2,3-e)(1,2,4)triazolo(3,4-c)(1,4)diazepines” (priority 1989, dated 1990).
Read-outs that look alike come from different tables or passages of the source.

Tests used:
[1] = tested on: PAF-mediated extravasation; test: PAF-induced Extravasation test (Test C); format: in vivo, guinea pigs; settings: Cavia porcellus, po, read-out: Test C ED50
[2] = tested on: PAF-induced human platelet aggregation; test: Platelet Aggregation Inhibition Assay test (PAIA test); format: cell-based; settings: C-16 PAF 0.1 μM or 0.01 μM; human platelet rich plasma
Experimental: All of the compounds of formula I, as well as their pharmaceutically acceptable acid addition salts, are useful as platelet activating factor inhibitors as indicated by their ability to inhibit platelet activating factor (PAF)-induced human platelet aggregation in vitro according to the Platelet Aggregation Inhibition Assay test (PAIA test) as follows:
Human subjects are kept aspirin free for one week and fasted overnight. Platelet rich plasma (PRP) is prepared by centrifugation (200×g.) of freshly drawn blood, anti-coagulated within 0.38% sodium citrate (final concentration). Platelet count is adjusted to 250,000 per μl using platelet poor plasma (PPP) obtained by a second centrifugation (700×g.) of the blood sample. An aliquot (0.38 ml) of the PRP is dispensed into cuvettes and maintained at room temperature (22° C.) until used (but for not more than two hours). […] The aggregation response is quantitated by determining the area under the curve (AUC). The AUC calculated for the inducing agent alone is considered to be one hundred percent. The potential percent inhibition of the aggregation response is determined by dividing the AUC generated in the presence of the compound by the AUC of the inducing agent alone, multiplying by 100 and then subtracting from 100.

[3] = target: T1, Human Platelet PAF Receptor (Homo sapiens, UniProt P25105); test: Human Platelet PAF Receptor Assay test (Test A); format: binding
T1 construct: endogenous in cells; host or cells: washed platelets from the blood of healthy human donors
T1 sequence (P25105 whole entry): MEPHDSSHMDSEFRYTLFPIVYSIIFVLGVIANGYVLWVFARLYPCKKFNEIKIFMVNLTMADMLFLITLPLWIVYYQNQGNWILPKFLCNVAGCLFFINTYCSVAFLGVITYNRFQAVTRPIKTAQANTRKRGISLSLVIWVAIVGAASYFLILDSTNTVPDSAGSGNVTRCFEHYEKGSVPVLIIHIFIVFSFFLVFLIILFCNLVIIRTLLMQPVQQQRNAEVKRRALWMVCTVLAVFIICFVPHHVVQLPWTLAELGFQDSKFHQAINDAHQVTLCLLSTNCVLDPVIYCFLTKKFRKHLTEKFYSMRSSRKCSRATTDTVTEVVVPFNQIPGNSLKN
Experimental: Human blood is obtained by venipuncture of healthy, human donors into an anti-coagulant mixture containing 3.15% of trisodium citrate and 20 μg/ml of Prostaglandin I2 (PGI2) in a ratio of blood to anti-coagulant of 9:1. Platelet rich plama (PRP) is prepared by centrifugation (250×g) of the blood for 20 minutes at room temperature. The PRP is then centrifuged (900×g) for 10 minutes at room temperature and the platelet pellet is washed two times with Tris-Tyrode's (TT) solution having a pH of 7.4 and containing 0.25% bovine serum albumin (BSA), and to which has been added PGI2 at a final concentration of […]. The platelets are resuspended at […] in TT/BSA containing 1.4 mM CaCl2.2H2 O and 0.7 mM MgCl2.6H2 O. All of the tests are conducted in duplicate and each of the test compounds is evaluated at concentrations of 100, 50, 1 and 0.1 μM. […]
Each mixture is allowed to incubate at room temperature for one hour, after which time the reaction is terminated by the addition of 500 μl of ice cold TT/BSA and centrifugation (900×g) at 4° C. for 10 minutes. […] An additional 2 ml. of Scintiverse II is then added to the vials and, after mixing, the vials are counted for 1 minute in a liquid scintillation spectrometer. The amount of specific binding is calculated as the difference in cpm between the total bound (^3 H)-PAF and non-specifically bound (^3 H)-PAF. […]

[4] = tested on: PAF-mediated bronchoconstriction; test: PAF-induced Pulmonary Inflation Pressure (PIP) Increase test (Test B); format: in vivo, guinea pigs; settings: Cavia porcellus, po, read-out: Test B ED50
Experimental: Furthermore, in view of their usefulness as PAF receptor antagonists, the compounds of formula I have been found useful as inhibitors of PAF-mediated bronchoconstriction, which property was evaluated by the PAF-induced Pulmonary Inflation Pressure (PIP) Increase test (Test B) as follows:
Male guinea pigs, weighing between 300 and 400 gm, are anesthetized, after which time trachea tube, carotid and jugular catheters are inserted. The test animal is then force ventilated employing a small animal Harvard respirator and the resistance to lung inflation (PIP) is measured utilizing a pressure transducer and recorder. The test compound is administered orally at 30 minutes prior to, intravenously (jugular) at 5 minutes prior to, or intraarterially at 1 to 5 minutes prior to the introduction of PAF. […] Any blood pressure measurements taken are recorded from a transducer attached to the carotid catheter. […] A reading at 15 minutes after the administration of PAF is termed the endpoint PIP. The effect of the test compound on the PIP response is determined by the difference between the percent increase in maximal PIP over baseline for the test animal to which has been administered PAF and the test compound compared to the test animal to which only PAF has been administered to generate an ED 5 C (dose needed to effect a 50% response).

PAF-induced hypotension = settings: rat; for decrease in blood pressure: within 10 sec.
Experimental: Male Wistar rats, weighing approximately 300 gm, are anesthetized and their carotid arteries cannulated to enable their diastolic and systolic arterial blood pressure measurements to be recorded. PAF is then administered intravenously at either 100 or 500 ng/kg, and the blood pressure drop (within 10 sec.) and recovery time required to reach the pre-injection blood pressure level are measured. […] In order to measure the effectiveness of a compound for both the inhibition of blood pressure decreases and shortening of the recovery time, the test compound is administered intravenously over a range of between 5 and 7 dosage levels (1 or 2 test animals per dose) and between 1 and 5 minutes prior to the introduction of PAF to generate an ED50.

Compound	ED50 [1]	IC50 [2]	IC50 [3]	ED50 [4]	decrease in blood pressure (PAF-induced hypotension; 100 ng/kg i.v.)	recovery time (PAF-induced hypotension; 500 ng/kg i.v., to pre-injection blood pressure level)	decrease in blood pressure (PAF-induced hypotension; 500 ng/kg i.v.)
COc1cc(CCc2ccc(C3=NCc4nnc(C)n4-c4sccc43)cc2)cc(OC)c1OC [Example 1, 1-methyl-6-[4-[2-(3,4,5-trimethoxyphenyl)ethyl]phenyl]-4H-thieno[2,3-e][1,2,4]triazolo[3,4-c][1,4]diazepine]	0.5 mg/kg	12 µM	220 nM	0.8 mg/kg			
1-O-alkyl-2-acetyl-sn-glyceryl-3-phosphoryl-choline [PAF]					30%	10 min	52%
